From the kinase profiling compilation of Christmann-Franck et al. (2016)

These molecules were tested against CAMK2G (human) (UniProt Q13555) (assay: radiometric filter-binding kinase assay, Kinase HotSpot). Conditions: compound 0.5 µM; ATP 10 µM.
O=C1NC(=O)c2c1c1c3ccccc3[nH]c1c1[nH]c3cc(Br)ccc3c21 showed a residual activity of 99.5%. For O=c1[nH]c2ccccc2n1C1CCN(Cc2ccc(-c3nc4cc5[nH]cnc5cc4nc3-c3ccccc3)cc2)CC1, the residual activity was 105%.

The molecules below were run against TGFBR1 (human) (UniProt P36897) in the same assay as above. Conditions: compound 0.5 µM; ATP 10 µM.
Sequence of TGFBR1 (human) (P36897 whole entry, looked up): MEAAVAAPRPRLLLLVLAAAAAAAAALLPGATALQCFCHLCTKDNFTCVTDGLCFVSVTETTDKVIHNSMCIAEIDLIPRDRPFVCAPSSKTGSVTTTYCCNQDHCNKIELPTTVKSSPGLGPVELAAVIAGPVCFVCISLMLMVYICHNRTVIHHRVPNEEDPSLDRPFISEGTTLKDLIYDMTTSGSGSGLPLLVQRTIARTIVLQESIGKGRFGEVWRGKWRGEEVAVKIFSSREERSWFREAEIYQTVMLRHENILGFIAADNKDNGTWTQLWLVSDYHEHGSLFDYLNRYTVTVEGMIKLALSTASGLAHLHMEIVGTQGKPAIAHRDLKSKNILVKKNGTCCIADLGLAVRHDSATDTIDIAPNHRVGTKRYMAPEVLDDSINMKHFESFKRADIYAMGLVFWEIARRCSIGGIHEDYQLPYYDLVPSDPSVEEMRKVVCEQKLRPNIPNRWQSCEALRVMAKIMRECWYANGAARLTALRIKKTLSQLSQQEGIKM
For CCOc1cc2ncnc(Nc3cccc(Br)c3)c2cc1OCC, the residual activity was 96.9%. With COc1cc2c(N3CCN(C(=O)Nc4ccc(OC(C)C)cc4)CC3)ncnc2cc1OCCCN1CCCCC1 the residual activity was 102%. For O=C1NC(=O)c2c1c1c3ccccc3[nH]c1c1[nH]c3cc(Br)ccc3c21, the residual activity was 96.9%. Molecule O=c1[nH]c2ccccc2n1C1CCN(Cc2ccc(-c3nc4cc5[nH]cnc5cc4nc3-c3ccccc3)cc2)CC1 has a residual activity of 102%.

These molecules were tested against TBK1 (human) (UniProt Q9UHD2) in the same assay as above. Conditions: compound 0.5 µM; ATP 10 µM.
In the case of CCOc1cc2ncnc(Nc3cccc(Br)c3)c2cc1OCC, the residual activity was 85.4%. Molecule COc1cc2c(N3CCN(C(=O)Nc4ccc(OC(C)C)cc4)CC3)ncnc2cc1OCCCN1CCCCC1 has a residual activity of 97.2%. Work on O=C1NC(=O)c2c1c1c3ccccc3[nH]c1c1[nH]c3cc(Br)ccc3c21 yielded a residual activity of 53.5%. O=c1[nH]c2ccccc2n1C1CCN(Cc2ccc(-c3nc4cc5[nH]cnc5cc4nc3-c3ccccc3)cc2)CC1 showed a residual activity of 92.7%.

These molecules were tested against HCK (human) (UniProt P08631) in the same assay as above. Conditions: compound 0.5 µM; ATP 10 µM.
Sequence of HCK (human) (P08631 whole entry, looked up): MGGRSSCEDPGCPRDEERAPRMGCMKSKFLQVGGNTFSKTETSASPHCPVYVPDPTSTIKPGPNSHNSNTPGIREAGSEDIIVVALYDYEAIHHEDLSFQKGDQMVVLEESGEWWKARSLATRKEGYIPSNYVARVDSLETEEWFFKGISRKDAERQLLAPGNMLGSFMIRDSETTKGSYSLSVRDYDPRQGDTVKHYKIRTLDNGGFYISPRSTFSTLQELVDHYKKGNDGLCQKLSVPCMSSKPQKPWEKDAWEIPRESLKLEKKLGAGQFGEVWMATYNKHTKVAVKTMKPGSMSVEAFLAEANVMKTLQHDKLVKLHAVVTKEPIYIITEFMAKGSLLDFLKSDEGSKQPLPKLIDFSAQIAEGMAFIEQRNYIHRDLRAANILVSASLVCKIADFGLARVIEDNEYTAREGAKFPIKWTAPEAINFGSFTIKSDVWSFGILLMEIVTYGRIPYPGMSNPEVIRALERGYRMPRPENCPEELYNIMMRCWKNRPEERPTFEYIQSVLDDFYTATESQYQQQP
For CCOc1cc2ncnc(Nc3cccc(Br)c3)c2cc1OCC, the residual activity was 59.4%. COc1cc2c(N3CCN(C(=O)Nc4ccc(OC(C)C)cc4)CC3)ncnc2cc1OCCCN1CCCCC1 showed a residual activity of 93.2%. For O=C1NC(=O)c2c1c1c3ccccc3[nH]c1c1[nH]c3cc(Br)ccc3c21, the residual activity was 92.4%. O=c1[nH]c2ccccc2n1C1CCN(Cc2ccc(-c3nc4cc5[nH]cnc5cc4nc3-c3ccccc3)cc2)CC1 was tested, and the residual activity was 99.6%.

These molecules were tested against FLT1 (human) (UniProt P17948) in the same assay as above. Conditions: compound 0.5 µM; ATP 10 µM.
Sequence of FLT1 (human) (P17948 whole entry, looked up): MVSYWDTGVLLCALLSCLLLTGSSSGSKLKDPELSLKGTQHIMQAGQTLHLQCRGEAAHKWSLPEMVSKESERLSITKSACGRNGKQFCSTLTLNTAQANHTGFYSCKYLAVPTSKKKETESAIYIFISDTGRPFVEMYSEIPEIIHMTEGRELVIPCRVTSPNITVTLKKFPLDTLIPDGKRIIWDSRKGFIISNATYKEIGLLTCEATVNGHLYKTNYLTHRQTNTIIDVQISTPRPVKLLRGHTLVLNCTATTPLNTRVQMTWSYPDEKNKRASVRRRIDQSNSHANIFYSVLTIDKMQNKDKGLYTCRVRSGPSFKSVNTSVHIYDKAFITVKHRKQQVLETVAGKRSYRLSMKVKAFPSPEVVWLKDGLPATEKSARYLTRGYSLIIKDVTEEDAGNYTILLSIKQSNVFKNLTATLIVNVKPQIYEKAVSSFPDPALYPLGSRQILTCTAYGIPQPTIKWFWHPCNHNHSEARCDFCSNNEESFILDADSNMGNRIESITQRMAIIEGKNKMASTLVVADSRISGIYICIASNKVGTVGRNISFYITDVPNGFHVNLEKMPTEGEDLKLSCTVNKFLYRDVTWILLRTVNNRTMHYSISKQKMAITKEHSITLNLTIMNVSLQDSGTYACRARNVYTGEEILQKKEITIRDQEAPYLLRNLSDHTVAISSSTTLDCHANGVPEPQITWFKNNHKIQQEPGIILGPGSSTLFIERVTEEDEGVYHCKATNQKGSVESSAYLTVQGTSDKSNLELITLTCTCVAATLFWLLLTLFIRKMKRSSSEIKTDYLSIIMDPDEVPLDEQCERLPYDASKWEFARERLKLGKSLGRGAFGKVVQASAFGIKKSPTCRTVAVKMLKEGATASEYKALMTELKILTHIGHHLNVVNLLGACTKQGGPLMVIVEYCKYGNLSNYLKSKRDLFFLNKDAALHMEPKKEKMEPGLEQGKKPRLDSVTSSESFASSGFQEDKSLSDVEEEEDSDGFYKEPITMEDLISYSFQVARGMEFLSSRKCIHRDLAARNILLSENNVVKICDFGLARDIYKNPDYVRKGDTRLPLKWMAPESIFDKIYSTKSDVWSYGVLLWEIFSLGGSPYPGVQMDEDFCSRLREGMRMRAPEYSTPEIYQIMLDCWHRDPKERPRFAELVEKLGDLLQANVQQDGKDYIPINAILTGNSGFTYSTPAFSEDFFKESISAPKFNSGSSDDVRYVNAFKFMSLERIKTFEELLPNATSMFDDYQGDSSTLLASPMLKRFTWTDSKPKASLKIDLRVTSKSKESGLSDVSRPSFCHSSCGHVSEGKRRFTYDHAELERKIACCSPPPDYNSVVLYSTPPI
CCOc1cc2ncnc(Nc3cccc(Br)c3)c2cc1OCC gave a residual activity of 85%. COc1cc2c(N3CCN(C(=O)Nc4ccc(OC(C)C)cc4)CC3)ncnc2cc1OCCCN1CCCCC1 gave a residual activity of 99.4%. O=C1NC(=O)c2c1c1c3ccccc3[nH]c1c1[nH]c3cc(Br)ccc3c21 showed a residual activity of 56.5%. In the case of O=c1[nH]c2ccccc2n1C1CCN(Cc2ccc(-c3nc4cc5[nH]cnc5cc4nc3-c3ccccc3)cc2)CC1, the residual activity was 92.2%.

What follows are molecules tested against RPS6KB2 (human) (UniProt Q9UBS0) in the same assay as above. Conditions: compound 0.5 µM; ATP 10 µM.
Sequence of RPS6KB2 (human) (Q9UBS0 whole entry, looked up): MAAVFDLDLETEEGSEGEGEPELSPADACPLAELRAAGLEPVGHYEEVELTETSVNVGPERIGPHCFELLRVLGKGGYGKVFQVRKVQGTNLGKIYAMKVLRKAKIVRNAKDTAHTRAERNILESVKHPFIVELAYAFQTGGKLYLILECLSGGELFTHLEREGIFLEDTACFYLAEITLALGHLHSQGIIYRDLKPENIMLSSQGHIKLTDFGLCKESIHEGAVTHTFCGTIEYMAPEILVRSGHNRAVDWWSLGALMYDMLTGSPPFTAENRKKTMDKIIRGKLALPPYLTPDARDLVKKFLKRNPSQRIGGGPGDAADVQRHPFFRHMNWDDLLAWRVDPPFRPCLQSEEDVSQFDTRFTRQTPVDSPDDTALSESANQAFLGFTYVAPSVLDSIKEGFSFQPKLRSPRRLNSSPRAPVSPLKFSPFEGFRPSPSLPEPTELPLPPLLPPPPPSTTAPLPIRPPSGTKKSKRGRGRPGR
Molecule CCOc1cc2ncnc(Nc3cccc(Br)c3)c2cc1OCC has a residual activity of 102%. COc1cc2c(N3CCN(C(=O)Nc4ccc(OC(C)C)cc4)CC3)ncnc2cc1OCCCN1CCCCC1 was tested, and the residual activity was 102%. In the case of O=C1NC(=O)c2c1c1c3ccccc3[nH]c1c1[nH]c3cc(Br)ccc3c21, the residual activity was 83.9%. For O=c1[nH]c2ccccc2n1C1CCN(Cc2ccc(-c3nc4cc5[nH]cnc5cc4nc3-c3ccccc3)cc2)CC1, the residual activity was 102%.

These molecules were tested against ROCK1 (human) (UniProt Q13464) in the same assay as above. Conditions: compound 0.5 µM; ATP 10 µM.
CCOc1cc2ncnc(Nc3cccc(Br)c3)c2cc1OCC gave a residual activity of 98.8%. With COc1cc2c(N3CCN(C(=O)Nc4ccc(OC(C)C)cc4)CC3)ncnc2cc1OCCCN1CCCCC1 the residual activity was 102%. In the case of O=C1NC(=O)c2c1c1c3ccccc3[nH]c1c1[nH]c3cc(Br)ccc3c21, the residual activity was 93.9%. O=c1[nH]c2ccccc2n1C1CCN(Cc2ccc(-c3nc4cc5[nH]cnc5cc4nc3-c3ccccc3)cc2)CC1 gave a residual activity of 101%.

What follows are molecules tested against CDK3 CCNE1 (human) (UniProt Q00526+P24864) in the same assay as above. Conditions: compound 0.5 µM.
Sequence of CDK3 CCNE1 (human) (P24864 whole entry, looked up): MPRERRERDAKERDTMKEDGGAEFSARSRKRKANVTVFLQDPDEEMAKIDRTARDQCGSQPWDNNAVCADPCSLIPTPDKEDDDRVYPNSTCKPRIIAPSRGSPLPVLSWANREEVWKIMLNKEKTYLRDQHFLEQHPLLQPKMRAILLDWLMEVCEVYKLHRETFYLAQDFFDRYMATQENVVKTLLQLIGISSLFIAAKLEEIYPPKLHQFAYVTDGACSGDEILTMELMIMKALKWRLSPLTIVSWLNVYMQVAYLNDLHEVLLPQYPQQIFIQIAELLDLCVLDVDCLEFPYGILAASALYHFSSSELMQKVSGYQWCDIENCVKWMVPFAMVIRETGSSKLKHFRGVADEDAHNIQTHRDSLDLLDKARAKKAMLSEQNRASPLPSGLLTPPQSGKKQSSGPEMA
Sequence of CDK3 CCNE1 (human) (Q00526 whole entry, looked up): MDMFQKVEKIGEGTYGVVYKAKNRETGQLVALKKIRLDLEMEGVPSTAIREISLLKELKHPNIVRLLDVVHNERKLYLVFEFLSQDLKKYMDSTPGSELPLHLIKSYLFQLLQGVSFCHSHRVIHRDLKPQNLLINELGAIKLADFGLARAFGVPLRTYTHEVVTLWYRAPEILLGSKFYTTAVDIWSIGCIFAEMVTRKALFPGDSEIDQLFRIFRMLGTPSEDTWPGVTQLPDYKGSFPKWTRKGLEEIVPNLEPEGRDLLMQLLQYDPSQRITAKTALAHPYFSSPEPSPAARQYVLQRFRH
O=c1[nH]c2ccccc2n1C1CCN(Cc2ccc(-c3nc4cc5[nH]cnc5cc4nc3-c3ccccc3)cc2)CC1 was tested, and the residual activity was 97.5%.

Same assay, conditions: compound 0.5 µM; ATP 10 µM
Molecule CCOc1cc2ncnc(Nc3cccc(Br)c3)c2cc1OCC has a residual activity of 95.2%. In the case of COc1cc2c(N3CCN(C(=O)Nc4ccc(OC(C)C)cc4)CC3)ncnc2cc1OCCCN1CCCCC1, the residual activity was 90.6%. For O=C1NC(=O)c2c1c1c3ccccc3[nH]c1c1[nH]c3cc(Br)ccc3c21, the residual activity was 88.1%.

These molecules were tested against MAPK1 (human) (UniProt P28482) in the same assay as above. Conditions: compound 0.5 µM; ATP 10 µM.
Sequence of MAPK1 (human) (P28482 whole entry, looked up): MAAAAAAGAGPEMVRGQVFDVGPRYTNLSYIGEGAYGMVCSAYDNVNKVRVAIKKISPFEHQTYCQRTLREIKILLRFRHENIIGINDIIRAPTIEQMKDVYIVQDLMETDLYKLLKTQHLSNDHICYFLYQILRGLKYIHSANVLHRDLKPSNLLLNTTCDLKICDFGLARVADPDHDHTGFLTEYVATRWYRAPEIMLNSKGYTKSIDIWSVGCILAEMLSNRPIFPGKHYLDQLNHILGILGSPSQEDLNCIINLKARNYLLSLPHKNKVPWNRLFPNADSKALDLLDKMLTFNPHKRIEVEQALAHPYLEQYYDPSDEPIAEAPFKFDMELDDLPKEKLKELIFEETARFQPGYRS
In the case of CCOc1cc2ncnc(Nc3cccc(Br)c3)c2cc1OCC, the residual activity was 104%. With COc1cc2c(N3CCN(C(=O)Nc4ccc(OC(C)C)cc4)CC3)ncnc2cc1OCCCN1CCCCC1 the residual activity was 87%. With O=C1NC(=O)c2c1c1c3ccccc3[nH]c1c1[nH]c3cc(Br)ccc3c21 the residual activity was 92.4%. O=c1[nH]c2ccccc2n1C1CCN(Cc2ccc(-c3nc4cc5[nH]cnc5cc4nc3-c3ccccc3)cc2)CC1 gave a residual activity of 112%.

What follows are molecules tested against CDK4 CCND1 (human) (UniProt P24385+P11802) in the same assay as above. Conditions: compound 0.5 µM.
O=c1[nH]c2ccccc2n1C1CCN(Cc2ccc(-c3nc4cc5[nH]cnc5cc4nc3-c3ccccc3)cc2)CC1 gave a residual activity of 108%.

Same assay, conditions: compound 0.5 µM; ATP 10 µM
With CCOc1cc2ncnc(Nc3cccc(Br)c3)c2cc1OCC the residual activity was 94.2%. COc1cc2c(N3CCN(C(=O)Nc4ccc(OC(C)C)cc4)CC3)ncnc2cc1OCCCN1CCCCC1 showed a residual activity of 92.5%. Molecule O=C1NC(=O)c2c1c1c3ccccc3[nH]c1c1[nH]c3cc(Br)ccc3c21 has a residual activity of 84.9%.

Each molecule was assayed against MAP4K2 (human) (UniProt Q12851) in the same assay as above. Conditions: compound 0.5 µM; ATP 10 µM.
Sequence of MAP4K2 (human) (Q12851 whole entry, looked up): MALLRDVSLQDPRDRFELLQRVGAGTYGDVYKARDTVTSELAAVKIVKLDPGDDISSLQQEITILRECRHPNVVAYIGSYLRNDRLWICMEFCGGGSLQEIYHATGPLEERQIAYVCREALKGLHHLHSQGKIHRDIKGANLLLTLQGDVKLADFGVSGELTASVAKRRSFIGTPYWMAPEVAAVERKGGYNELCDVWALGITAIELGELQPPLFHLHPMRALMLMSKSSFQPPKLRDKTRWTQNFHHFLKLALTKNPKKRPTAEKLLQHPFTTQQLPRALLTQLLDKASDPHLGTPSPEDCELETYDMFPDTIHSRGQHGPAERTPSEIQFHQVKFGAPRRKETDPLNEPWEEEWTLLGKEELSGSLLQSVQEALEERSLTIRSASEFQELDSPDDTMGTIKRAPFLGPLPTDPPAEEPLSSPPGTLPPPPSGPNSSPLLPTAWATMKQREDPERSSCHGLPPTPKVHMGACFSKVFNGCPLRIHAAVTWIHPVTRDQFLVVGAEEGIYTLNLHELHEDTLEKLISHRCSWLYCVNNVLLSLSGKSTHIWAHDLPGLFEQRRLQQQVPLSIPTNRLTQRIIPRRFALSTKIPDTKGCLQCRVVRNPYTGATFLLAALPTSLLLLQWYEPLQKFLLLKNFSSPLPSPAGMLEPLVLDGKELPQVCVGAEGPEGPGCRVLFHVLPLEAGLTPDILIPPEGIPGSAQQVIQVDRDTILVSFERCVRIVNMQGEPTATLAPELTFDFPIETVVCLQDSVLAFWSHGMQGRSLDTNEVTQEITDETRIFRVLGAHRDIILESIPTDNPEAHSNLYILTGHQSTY
In the case of CCOc1cc2ncnc(Nc3cccc(Br)c3)c2cc1OCC, the residual activity was 91.5%. COc1cc2c(N3CCN(C(=O)Nc4ccc(OC(C)C)cc4)CC3)ncnc2cc1OCCCN1CCCCC1 showed a residual activity of 104%. O=C1NC(=O)c2c1c1c3ccccc3[nH]c1c1[nH]c3cc(Br)ccc3c21 gave a residual activity of 74.1%. In the case of O=c1[nH]c2ccccc2n1C1CCN(Cc2ccc(-c3nc4cc5[nH]cnc5cc4nc3-c3ccccc3)cc2)CC1, the residual activity was 105%.
